One assay addresses LIM domain kinase 2 (Homo sapiens, UniProt P53671).
Assay [1] addresses Mitogen-activated protein kinase 11 (Homo sapiens, UniProt Q15759).
Assay [2] has as its target T1, DNA replication licensing factor MCM4 (Homo sapiens, UniProt P33991).
T1 sequence (P33991 whole entry): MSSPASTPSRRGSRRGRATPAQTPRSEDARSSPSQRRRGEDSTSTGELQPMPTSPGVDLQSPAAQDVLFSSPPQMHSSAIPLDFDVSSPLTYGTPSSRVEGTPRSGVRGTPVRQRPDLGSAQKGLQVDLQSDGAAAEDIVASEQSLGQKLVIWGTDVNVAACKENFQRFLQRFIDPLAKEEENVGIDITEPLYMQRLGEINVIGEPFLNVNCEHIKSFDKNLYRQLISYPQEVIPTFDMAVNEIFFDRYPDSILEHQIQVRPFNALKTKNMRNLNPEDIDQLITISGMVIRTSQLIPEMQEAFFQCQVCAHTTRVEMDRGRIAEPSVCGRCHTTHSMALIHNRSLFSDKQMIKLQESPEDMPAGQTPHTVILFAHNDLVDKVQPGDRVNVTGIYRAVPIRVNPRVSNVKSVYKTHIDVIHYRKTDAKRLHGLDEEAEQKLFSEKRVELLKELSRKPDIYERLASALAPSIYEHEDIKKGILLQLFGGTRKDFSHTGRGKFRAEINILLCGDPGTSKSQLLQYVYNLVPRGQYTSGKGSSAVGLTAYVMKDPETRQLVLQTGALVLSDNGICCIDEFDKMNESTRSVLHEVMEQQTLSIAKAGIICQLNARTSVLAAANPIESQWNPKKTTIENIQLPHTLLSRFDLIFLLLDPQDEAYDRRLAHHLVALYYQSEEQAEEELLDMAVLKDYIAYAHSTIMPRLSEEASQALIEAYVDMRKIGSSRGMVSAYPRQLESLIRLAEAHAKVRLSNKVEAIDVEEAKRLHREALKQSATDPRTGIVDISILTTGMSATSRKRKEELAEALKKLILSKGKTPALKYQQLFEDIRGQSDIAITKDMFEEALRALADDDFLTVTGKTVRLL

Assay [3] addresses Inosine-5'-monophosphate dehydrogenase 2 (Homo sapiens, UniProt P12268).
In assay [4] the target is T2, Adenine phosphoribosyltransferase (Homo sapiens, UniProt P07741).
T2 sequence (P07741 whole entry): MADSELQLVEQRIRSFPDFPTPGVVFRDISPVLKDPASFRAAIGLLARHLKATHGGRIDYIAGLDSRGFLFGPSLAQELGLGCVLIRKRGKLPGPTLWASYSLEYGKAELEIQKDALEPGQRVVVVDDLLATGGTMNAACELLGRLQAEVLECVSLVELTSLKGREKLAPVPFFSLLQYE

Assay [5] concerns the target Ras-related protein Rab-6A (Homo sapiens, UniProt P20340).
Assay [6] has as its target T3, Signal recognition particle receptor subunit alpha (Homo sapiens, UniProt P08240).
T3 sequence (P08240 whole entry): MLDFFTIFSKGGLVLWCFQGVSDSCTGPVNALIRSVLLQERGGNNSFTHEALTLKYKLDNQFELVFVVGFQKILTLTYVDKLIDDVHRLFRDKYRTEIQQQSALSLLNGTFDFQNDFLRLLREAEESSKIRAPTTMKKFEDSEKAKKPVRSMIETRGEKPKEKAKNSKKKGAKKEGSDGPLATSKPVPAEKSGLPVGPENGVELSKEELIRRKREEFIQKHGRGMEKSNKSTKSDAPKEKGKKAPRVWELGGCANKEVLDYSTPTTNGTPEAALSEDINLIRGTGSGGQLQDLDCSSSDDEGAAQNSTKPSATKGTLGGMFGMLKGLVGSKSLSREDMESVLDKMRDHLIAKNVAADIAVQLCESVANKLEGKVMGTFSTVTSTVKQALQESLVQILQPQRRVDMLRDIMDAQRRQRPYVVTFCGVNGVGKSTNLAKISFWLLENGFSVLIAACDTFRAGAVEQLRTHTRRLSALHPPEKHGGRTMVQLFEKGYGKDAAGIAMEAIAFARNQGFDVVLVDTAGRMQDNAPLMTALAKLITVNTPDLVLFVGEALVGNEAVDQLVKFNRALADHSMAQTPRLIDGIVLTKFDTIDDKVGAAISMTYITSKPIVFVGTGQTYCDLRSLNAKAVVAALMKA

For assay [7], the target named is Phosphatidylethanolamine-binding protein 1 (Homo sapiens, UniProt P30086).

SMILES strings stand for the structures. The source made the active and inactive calls.

The Kd is the concentration at which binding is half-saturated.
Further: in the data inactive means no Kd found up to 30 µM.

Chain of Mitogen-activated protein kinase 11 (Q15759 whole entry): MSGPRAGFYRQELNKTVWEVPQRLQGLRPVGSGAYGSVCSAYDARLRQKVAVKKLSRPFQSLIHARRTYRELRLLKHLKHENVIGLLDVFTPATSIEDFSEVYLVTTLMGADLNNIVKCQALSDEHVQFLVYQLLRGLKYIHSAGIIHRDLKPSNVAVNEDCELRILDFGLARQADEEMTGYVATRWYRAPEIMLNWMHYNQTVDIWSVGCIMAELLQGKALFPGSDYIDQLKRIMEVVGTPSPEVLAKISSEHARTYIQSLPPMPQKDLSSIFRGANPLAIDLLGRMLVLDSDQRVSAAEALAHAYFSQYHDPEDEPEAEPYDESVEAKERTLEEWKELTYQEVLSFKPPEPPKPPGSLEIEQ
Chain of LIM domain kinase 2 (P53671 whole entry, the tested form may be a part): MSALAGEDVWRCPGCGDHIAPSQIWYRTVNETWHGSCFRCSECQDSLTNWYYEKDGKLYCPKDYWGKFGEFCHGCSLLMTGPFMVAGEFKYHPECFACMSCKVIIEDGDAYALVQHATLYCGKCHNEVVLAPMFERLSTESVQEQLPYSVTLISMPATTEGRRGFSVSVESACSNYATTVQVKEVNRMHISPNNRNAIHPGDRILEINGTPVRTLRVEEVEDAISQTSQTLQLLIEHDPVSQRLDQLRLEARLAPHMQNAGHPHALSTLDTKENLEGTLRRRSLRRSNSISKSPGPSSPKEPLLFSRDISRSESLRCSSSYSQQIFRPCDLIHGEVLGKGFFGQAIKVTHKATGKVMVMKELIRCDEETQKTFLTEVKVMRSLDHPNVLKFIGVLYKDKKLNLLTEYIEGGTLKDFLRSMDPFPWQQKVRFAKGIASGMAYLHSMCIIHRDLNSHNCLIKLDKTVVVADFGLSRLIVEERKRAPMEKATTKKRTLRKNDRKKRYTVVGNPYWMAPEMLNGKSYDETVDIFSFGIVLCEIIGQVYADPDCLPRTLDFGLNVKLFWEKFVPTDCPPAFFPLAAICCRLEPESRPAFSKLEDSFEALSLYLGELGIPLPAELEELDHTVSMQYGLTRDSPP
Chain of Phosphatidylethanolamine-binding protein 1 (P30086 whole entry): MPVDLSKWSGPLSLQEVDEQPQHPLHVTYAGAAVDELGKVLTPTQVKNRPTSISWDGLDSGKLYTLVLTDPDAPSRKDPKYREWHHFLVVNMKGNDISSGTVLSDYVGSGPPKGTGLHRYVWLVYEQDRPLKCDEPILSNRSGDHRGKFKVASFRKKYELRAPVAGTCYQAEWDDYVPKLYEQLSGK
Chain of Ras-related protein Rab-6A (P20340 whole entry): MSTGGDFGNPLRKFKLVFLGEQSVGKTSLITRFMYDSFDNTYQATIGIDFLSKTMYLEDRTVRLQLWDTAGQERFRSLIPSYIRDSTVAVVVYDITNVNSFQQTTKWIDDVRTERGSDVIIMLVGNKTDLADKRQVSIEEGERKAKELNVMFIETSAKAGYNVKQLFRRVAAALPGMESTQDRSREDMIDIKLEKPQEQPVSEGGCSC

For `C[C@H]1CNCCCN1S(=O)(=O)c1cccc2cncc(F)c12`, the Kd (on LIM domain kinase 2; in assay [1]; in assay [2]; in assay [3]; in assay [4]; in assay [5]) was > 30 µM (inactive) in each case.
Turning to `CC(=O)c1cnc2ccc(-c3cc(Cl)c(O)c(Cl)c3)nc2c1N[C@H]1CC[C@H](CN(C)C)CC1`, the Kd (in assay [6]; on LIM domain kinase 2; in assay [1]; in assay [2]; in assay [7]; in assay [4]) was > 30 µM (inactive) throughout. In addition, the Kd in assay [5] was > 30 µM (inactive).
In the case of `CCNC(=O)C#Cc1ccc2c(c1)NC(=O)/C2=C(\Nc1ccc(CN(C)C)cc1)c1ccccc1`, the Kd (in assay [6]; at LIM domain kinase 2; in assay [1]; in assay [2]; in assay [3]; in assay [4]) was > 30 µM (inactive) throughout. Further, the Kd in assay [5] was > 30 µM (inactive).
For the compound `Cc1cc(C(=O)NOCCO)c(Nc2ccc(I)cc2F)n(C)c1=O` [AZD-8330], the Kd (in assay [6]; at LIM domain kinase 2; in assay [2]; in assay [3]; in assay [4]; in assay [5]) was > 30 µM (inactive) throughout.
On to `Cc1cc(Nc2ncc(Cl)c(Nc3ccccc3S(=O)(=O)C(C)C)n2)c(OC(C)C)cc1C1CCNCC1` [CERITINIB], for which the Kd (in assay [6]; on LIM domain kinase 2; in assay [1]; in assay [2]; in assay [7]; in assay [4]) was > 30 µM (inactive) in each case. Further, the Kd in assay [5] is > 30 µM (inactive).
In the case of `Cn1cc(C2=C(c3cn(C4CCN(Cc5ccccn5)CC4)c4ccccc34)C(=O)NC2=O)c2ccccc21` [ENZASTAURIN], the Kd in assay [2], in assay [3], in assay [7], in assay [4] and in assay [5] was > 30 µM (inactive) each time.
Take `Cc1cccc(-c2nn3c(c2-c2ccnc4ccc(C(N)=O)cc24)CCC3)n1` [GALUNISERTIB]: the Kd (in assay [6]; at LIM domain kinase 2; in assay [1]; in assay [2]; in assay [3]; in assay [7]) was > 30 µM (inactive) in each case. The Kd in assay [5] was > 30 µM (inactive).
Turning to `COc1ccc(S(=O)(=O)N(C(C)=O)c2ccccc2/C=C/c2cc[n+]([O-])cc2)cc1` [HMN-214], the Kd (in assay [6]; at LIM domain kinase 2; in assay [1]; in assay [4]; in assay [5]) was > 30 µM (inactive) in each case.
Regarding `O=C(Nc1cc(C(F)(F)F)cc(C(F)(F)F)c1)c1cc(Cl)ccc1O` [IMD-0354], the Kd (in assay [6]; on LIM domain kinase 2; in assay [1]; in assay [2]; in assay [3]; in assay [7]) was > 30 µM (inactive) each time. Further, the Kd in assay [5] was > 30 µM (inactive).
For `Cn1cc(-c2cnc3ccc4ccc(CS(=O)(=O)NCc5ccccn5)cc4c(=O)c3c2)cn1` [MK-8033], the Kd (in assay [6]; at LIM domain kinase 2; in assay [1]; in assay [2]; in assay [3]; in assay [7]) was > 30 µM (inactive) each time. The Kd in assay [5] is > 30 µM (inactive).
Regarding `CCOc1cc2ncc(C#N)c(Nc3ccc(F)c(Cl)c3)c2cc1NC(=O)/C=C/CN(C)C` [PELITINIB], the Kd (on LIM domain kinase 2; in assay [1]; in assay [2]; in assay [3]; in assay [7]; in assay [4]) was > 30 µM (inactive) each time. The Kd in assay [5] was > 30 µM (inactive).
Consider `Cc1nc(Nc2n[nH]c3c2CN(C(=O)N[C@H](CN(C)C)c2ccccc2)C3(C)C)c2sccc2n1` [PF-03758309], for which the Kd (in assay [6]; on LIM domain kinase 2; in assay [1]; in assay [2]; in assay [7]; in assay [4]) was > 30 µM (inactive) each time. Also, the Kd in assay [5] was > 30 µM (inactive).
In the case of `CC(=O)NCC(=O)N1[C@@H]2CC[C@H]1c1ccc(Nc3ncc(C(F)(F)F)c(NC4CCC4)n3)cc12` [PF-03814735], the Kd (in assay [6]; at LIM domain kinase 2; in assay [1]; in assay [2]; in assay [4]; in assay [5]) was > 30 µM (inactive) in each case.
With `N#CC1(c2ccc(NC(=O)c3cccnc3NCc3ccncc3)cc2)CCCC1` [RIVOCERANIB], the Kd (on LIM domain kinase 2; in assay [1]; in assay [2]; in assay [3]; in assay [7]; in assay [4]) was > 30 µM (inactive) throughout. Further, the Kd in assay [5] was > 30 µM (inactive).
With `CCS(=O)(=O)c1cccc(-c2cc(C(=O)NC3CCN(C)CC3)c(C)c3[nH]c4ncc(C)cc4c23)c1` [TAK-901], the Kd (in assay [6]; on LIM domain kinase 2; in assay [1]; in assay [2]; in assay [7]; in assay [4]) was > 30 µM (inactive) in each case. The Kd in assay [5] is > 30 µM (inactive).
With `C[C@@H](NC(=O)c1ncnc(N)c1Cl)c1ncc(C(=O)Nc2cc(C(F)(F)F)c(Cl)cn2)s1` [TOVORAFENIB], the Kd was > 30 µM (inactive) on LIM domain kinase 2; 0.684 µM (active) in assay [1]; > 30 µM (inactive) in assay [2]; > 30 µM (inactive) in assay [3]; > 30 µM (inactive) in assay [7]; > 30 µM (inactive) in assay [4]. Besides, the Kd in assay [5] is > 30 µM (inactive).
Turning to `Cc1cc(Nc2ncnc3ccc(NC4=NC(C)(C)CO4)cc23)ccc1Oc1ccn2ncnc2c1` [TUCATINIB], the Kd (in assay [6]; on LIM domain kinase 2; in assay [1]; in assay [2]; in assay [3]; in assay [7]) was > 30 µM (inactive) each time. The Kd in assay [5] is > 30 µM (inactive).
Take `CC(C)c1cc(CNc2nc(Nc3cc(C4CC4)[nH]n3)cc(N3CCN(C)CC3)n2)on1` [XL-228]: the Kd (in assay [6]; at LIM domain kinase 2; in assay [1]; in assay [2]; in assay [3]; in assay [7]) was > 30 µM (inactive) throughout. Moreover, the Kd in assay [5] is > 30 µM (inactive).

Source of the values: ChEMBL document CHEMBL3991601, “The target landscape of clinical kinase drugs” (Science, 2017).
